# System: cortical infarct volume after middle cerebral artery occlusion
# Test: Permanent focal ischemia, middle cerebral artery occlusion (MCAO model)
# Type: in vivo, spontaneously hypertensive rat
# Conditions: 0.001 mg/kg intravenous single bolus 30 minutes after MCAO; vs vehicle-treated control; infarct measured 24 hours after MCAO
# Description: To determine the ability of these compounds to reduce cell loss resulting from neuronal ischemia, a standard rodent model of permanent focal ischemia, involving occlusion of the middle cerebral artery in the spontaneously hypertensive rat (MCAO model) was employed [Tamura, A., et al., Journal of Cerebral Blood Flow and Metabolism, Volume 1, 53-60, (1981)].
# Selected compounds have been evaluated in the focal stroke model involving permanent middle cerebral artery occlusion (MCAO) in the spontaneously hypertensive rat. This procedure results in a reliably large neocortical infarct volume that is measured by means of vital dye exclusion in serial slices through the brain 24 hours after MCAO. In the present test, compounds were administered using an intravenous route of administration at 30 minutes after occlusion.
row,SMILES,reduction of cortical infarct volume
1,"Nc1c(-c2cc(Cl)ccc2O)c2cc(C(F)(F)F)ccc2[nH]c1=O [Example 2, 3-Amino-4-(5-chloro-2-hydroxyphenyl)-6-(trifluoromethyl)quinolin-2(1H)-one]",about 14%

# System: cloned mammalian (mSlo or hSlo) BK channels
# Test: BK-mediated outward current in Xenopus oocytes, two-electrode voltage clamp
# Type: cell-based
# Conditions: at 20 μM; expressed as percent increase over BK current in controls; IBTX-sensitive current; at least 5 oocytes
# Procedure: The ability of compounds described in the present invention to open BK channels and increase whole-cell outward (K^+) BK-mediated currents was assessed under voltage-clamp conditions by determining their ability to increase cloned mammalian (mSlo or hSlo) BK-mediated outward current heterologously expressed in Xenopus oocytes [Butler, A., et al., Science, 261: 221-224 (1993); and Dworetzky, S. I., et al., Mol. Brain Res., 27: 189-193 (1994)]. The two BK constructs employed represent nearly structurally identical homologous proteins, and have proven to be pharmacologically identical in our tests. To isolate BK current from native (background, non-BK) current, the specific and potent BK channel-blocking toxin iberiotoxin (IBTX) [Galvez, A., et al., J. Biol. Chem., 265: 11083-11090 (1990)] was employed at a supramaximal concentration (50 nM). The relative contribution of BK channels current to total outward current was determined by subtraction of the current remaining in the presence of IBTX (non-BK current) from the current profiles obtained in all other experimental conditions (control, drug, and wash). […] All compounds were tested in at least 5 oocytes and are reported at the single concentration of 20 μM; the effect of the selected compounds of Formula I on BK current was expressed as the percent of control IBTX-sensitive current and is listed in Table I. Recordings were accomplished using standard two-electrode voltage clamp techniques [Stuhmer, W., et al., Methods in Enzymology, Vol. 207: 319-339 (1992)]; voltage-clamp protocols consisted of 500-750 ms duration step depolarizations from a holding potential of -60 mV to +140 mV in 20 mV steps. The experimental media (modified Barth's solution) consisted of (in mM): NaCl (88), NaHCO3 (2.4), KCl (1.0), HEPES (10), MgSO4 (0.82), Ca(NO3)2 (0.33), CaCl2 (0.41); pH 7.5.
row,SMILES,BK Current
1,"Nc1c(-c2cc(Cl)ccc2O)c2cc(C(F)(F)F)ccc2[nH]c1=O [Example 2, 3-Amino-4-(5-chloro-2-hydroxyphenyl)-6-(trifluoromethyl)quinolin-2(1H)-one]",++ (++ = > 150%)
2,"O=c1[nH]c2ccc(C(F)(F)F)cc2c(-c2cc(Cl)ccc2O)c1NS(=O)(=O)C(F)(F)F [Example 5, N-[4-(5-Chloro-2-hydroxyphenyl)-2-oxo-6-(trifluoromethyl)-1H-quinolin-3-yl]trifluoromethanesulfonamide]",++ (++ = > 150%)
3,"O=C(Nc1c(-c2cc(Cl)ccc2O)c2cc(C(F)(F)F)ccc2[nH]c1=O)c1ccccc1 [Example 10, N-[4-(5-Chloro-2-hydroxyphenyl)-2-oxo-6-(trifluoromethyl)-1H-quinolin-3-yl]benzamide]",+ (+ = 100-150%)
4,"Nc1c(-c2cc(Cl)ccc2O)c2ccccc2[nH]c1=O [Example 14, 3-Amino-4-(5-chloro-2-hydroxyphenyl)quinolin-2(1H)-one]",+ (+ = 100-150%)
5,"O=C(Nc1c(-c2cc(Cl)ccc2O)c2cc(C(F)(F)F)ccc2[nH]c1=O)OCc1ccccc1 [Example 17, N-[4-(5-Chloro-2-hydroxyphenyl)-2-oxo-6-(trifluoromethyl)-1H-quinolin-3-yl]aminocarboxylic acid, phenylmethyl ester]",++ (++ = > 150%)
6,"Nc1c(-c2cc(Cl)ccc2O)c2cc([N+](=O)[O-])ccc2[nH]c1=O [Example 19, 3-Amino-4-(5-chloro-2-hydroxyphenyl)-6-nitroquinolin-2(1H)-one]",++ (++ = > 150%)
7,"O=C(Nc1c(-c2cc(Cl)ccc2O)c2cc(C(F)(F)F)ccc2[nH]c1=O)c1ccc(O)cc1 [Example 29, N-[4-(5-Chloro-2-hydroxyphenyl)-2-oxo-6-(trifluoromethyl)-1H-quinolin-3-yl]-4-hydroxybenzamide]",+ (+ = 100-150%)
8,"COc1ccc(CC(=O)Nc2c(-c3cc(Cl)ccc3O)c3cc(C(F)(F)F)ccc3[nH]c2=O)cc1 [Example 32, N-[4-(5-Chloro-2-hydroxyphenyl)-2-oxo-6-(trifluoromethyl)-1H-quinolin-3-yl]-(4-methoxyphenyl)acetamide]",+ (+ = 100-150%)
9,"Nc1c(-c2cc(Cl)ccc2O)c2cc(Cl)c(C(F)(F)F)cc2[nH]c1=O [Example 43, 3-Amino-4-(5-chloro-2-hydroxyphenyl)-6-chloro-7-(trifluoromethyl)quinolin-2(1H)-one]",+ (+ = 100-150%)
10,"Nc1c(-c2cc(Cl)ccc2O)c2c(C(F)(F)F)c(Cl)ccc2[nH]c1=O [Example 44, 3-Amino-4-(5-chloro-2-hydroxyphenyl)-6-chloro-5-(trifluoromethyl)quinolin-2(1H)-one]",+ (+ = 100-150%)
11,"O=c1[nH]c2ccc(C(F)(F)F)cc2c(-c2cc(Cl)ccc2O)c1NS(=O)(=O)c1ccc([N+](=O)[O-])cc1 [Example 64, N-[4-(5-Chloro-2-hydroxyphenyl)-2-oxo-6-(trifluoromethyl)-1H-quinolin-3-yl]-4-nitrobenzene-sulfonamide]",++ (++ = > 150%)
12,"O=c1[nH]c2ccc(C(F)(F)F)cc2c(-c2cc(Cl)ccc2O)c1NS(=O)(=O)c1ccc(F)cc1 [Example 66, N-[4-(5-Chloro-2-hydroxyphenyl)-2-oxo-6-(trifluoromethyl)-1 H-quinolin-3-yl]-(4-fluorobenzene)sulfonamide]",++ (++ = > 150%)
13,"Cn1c(=O)c(N)c(-c2cc(Cl)ccc2O)c2cc(C(F)(F)F)ccc21 [Example 68, 3-Amino-4-(5-chloro-2-hydroxy-phenyl)-1-methyl-6-(trifluoro-methyl)quinolin-2(1H)-one]",+ (+ = 100-150%)
14,"Nc1c(-c2ccc(O)c(Cl)c2)c2cc(C(F)(F)F)ccc2[nH]c1=O [Example 71, 3-Amino-4-(3-chloro-4-hydroxy-phenyl)-6-(trifluoromethyl)quinolin-2(1H)-one]",+ (+ = 100-150%)

# Source: US5972961A, “4-aryl-3-aminoquinoline-2-one derivatives as potassium channel modulators” (Bristol-Myers Squibb Company, priority 1998, dated 1999)
